Source: patent US3941882A, “Rodenticidal imidazo-pyridines” (priority 1974, dated 1976)
Several values for one entry are separate records, joined by “and”; a condition that tells them apart may be missing. Equal entries are not always repeated.

Legend:
Prothrombin (II) = assay: Coagulation factor concentration in dogs, factor II (Table VI); format: in vivo, dogs (beagles); details: 40 mg./kg. oral x 3 days; per dog
Procedure: (§1) Each of 1-methoxy-6-chloro-2-trifluoromethyl-1H-imidazo-(4,5-b)pyridine and 1-hydroxy-6-chloro-2-trifluoromethyl-1H-imidazo(4,5-b)pyridine was evaluated in coagulation studies in dogs (beagles weighing about 10 kilograms each). Two dogs were employed with each compound, one female and one male.
(§2) In the second part of the evaluation, a sample was taken from each of the same four dogs prior to any treatment (at the same time as the initial sample for the first part of the evaluation), and the samples were pooled and evaluated for the concentration of individual clotting factors, to serve as a control. Following the treatment described above, a sample was again taken from each dog and individually analyzed in the same manner. The control figure was considered as 100 percent and the scores for the treated dogs were reported as percent of the control figure. Analyses were by the following methods:
Ii f. koller et al., 6 Acta Haem. 1 (1951).

[1] = system: coagulation (prothrombin time, activated partial thromboplastin, thrombin clotting time, fibrinogen); assay: Coagulation studies in dogs: clotting times and fibrinogen (Table V); format: in vivo, dogs (beagles); details: for Activated Partial Thromboplastin Time / Fibrinogen Levels / Prothrombin Time / Thrombin Clotting Time: 40 mg./kg. oral on each of 3 successive days, fourth day, per dog
Procedure: as §1
In the first part of the evaluation, a blood sample was taken from each dog prior to any treatment with the respective compound. The sample was citrated and centrifuged for 10-15 minutes to segregate the plasma, which was separated and quick frozen. The dogs were then treated: each dog received 40 mg./kg. of the respective compound on each of 3 successive days; administration was by the oral route. On the fourth day, blood samples were again taken and processed as described above. Throughout the test, the dogs were provided with adequate food and water and otherwise maintained under good conditions. The samples were subsequently thawed and analyzed for prothrombin time activated partial thromboplastin, thrombin clotting time, and fibrinogen levels. The first three analyses were conducted on a "Bioquest Fibrometer", produced by Baltimore Biological Division of Becton and Dickinson at Cockeysville, Maryland 21030, Fibrinogen levels were determined by the method of H. O. Bang, 9 Scand. J. Clin. Lab. Inves. 205 (1957).

PTA (XI) = assay: Coagulation factor concentration in dogs, factor XI (Table VI); format: in vivo, dogs (beagles); details: 40 mg./kg. oral x 3 days; per dog
Procedure: as §1, §2
Xi s. i. rapaport, 57 J. Lab. Clin. Med. 771 (1961).

AHG (VIII) = assay: Coagulation factor concentration in dogs, factor VIII (Table VI); format: in vivo, dogs (beagles); details: 40 mg./kg. oral x 3 days; per dog
Procedure: as §1, §2
Viii r. d. langdell et al., 41 J. Lab. Clin. Med. 637 (1953).

PTC (IX) = assay: Coagulation factor concentration in dogs, factor IX (Table VI); format: in vivo, dogs (beagles); details: 40 mg./kg. oral x 3 days; per dog
Procedure: as §1, §2
Ix w. f. stapp, 10 Scand. J. Clin. Lab. Inves. 169 l (1958).

Stuart Factor (X) = assay: Coagulation factor concentration in dogs, factor X (Table VI); format: in vivo, dogs (beagles); details: 40 mg./kg. oral x 3 days; per dog
Procedure: as §1
(§3) In the second part of the evaluation, a sample was taken from each of the same four dogs prior to any treatment (at the same time as the initial sample for the first part of the evaluation), and the samples were pooled and evaluated for the concentration of individual clotting factors, to serve as a control. Following the treatment described above, a sample was again taken from each dog and individually analyzed in the same manner. The control figure was considered as 100 percent and the scores for the treated dogs were reported as percent of the control figure.

Hageman Factor (XII) = assay: Coagulation factor concentration in dogs, factor XII (Table VI); format: in vivo, dogs (beagles); details: 40 mg./kg. oral x 3 days; per dog
Procedure: as §1, §2
Xii o. d. ratnoff in Thrombosis and Bleading Disorders, ed. by N. U. Bang et al. (G. Thieme, and Academic Press, N.Y., 1971), pages 214-221.

Ac Globulin (V) = assay: Coagulation factor concentration in dogs, factor V (Table VI); format: in vivo, dogs (beagles); details: 40 mg./kg. oral x 3 days; per dog
Procedure: as §1, §3

Proconvertin (VII) = assay: Coagulation factor concentration in dogs, factor VII (Table VI); format: in vivo, dogs (beagles); details: 40 mg./kg. oral x 3 days; per dog
Procedure: as §1, §2
Vii f. bachman et al., 1 Thrombosis Diathes. Haemorrh. 169 (1957)

prothrombin time = assay: Prothrombin time in male rats (Tables III and IV); format: in vivo, rats (Harlan albino strain); details: five days, group of 5 rats
Procedure: Representative compounds were evaluated for prothrombin time in standard laboratory male rats (Harlan albino strain) of weanling age. A standard laboratory animal diet was fed to one group of 5 rats to serve as a control; other groups of 5 rats received modified diets, each diet being the standard laboratory animal diet modified by the incorporation therein of 0.08 percent of the respective compound. Feeding was continued for five days, at which time a blood sample was taken from each rat and analyzed for prothrombin time. The analytical method was that of A. J. Quick, "The Determination of Prothrombin," 190 Am. J. Med. Sci. 501 (1935): and it was performed on the "Electra 600", a machine available from the Medical Laboratory Automation, Inc. The results are reported in Table III.
Additional evaluations of the effect of representative compounds of prothrombin time were conducted. The procedures were the same as those reported in Examples 30-33 except that the concentration of the respective compound was 0.02 percent.

Structure (SMILES): On1c(C(F)(F)F)nc2ncc(Cl)cc21 [1-hydroxy-6-chloro-2-trifluoromethyl-1H-imidazo(4,5-b)pyridine]
- Coagulation Factor, Prothrombin (II) (Prothrombin (II)): 70 % of Control
- Activated Partial Thromboplastin Time [1]: 22.9 s and 16.0 s
- Fibrinogen Levels [1]: 223 mg% and 218 mg%
- Prothrombin Time [1]: 9.9 s and 6.9 s
- Thrombin Clotting Time [1]: 12.2 s and 12.0 s
- Coagulation Factor, PTA (XI) (PTA (XI)): 128 % of Control and 140 % of Control
- Coagulation Factor, AHG (VIII) (AHG (VIII)): 94 % of Control and 100 % of Control
- Coagulation Factor, PTC (IX) (PTC (IX)): 45 % of Control and 66 % of Control
- Coagulation Factor, Stuart Factor (X) (Stuart Factor (X)): 11 % of Control and 25 % of Control
- Coagulation Factor, Hageman Factor (XII) (Hageman Factor (XII)): 37 % of Control and 18 % of Control
- Coagulation Factor, Ac Globulin (V) (Ac Globulin (V)): 100 % of Control
- Coagulation Factor, Proconvertin (VII) (Proconvertin (VII)): 11 % of Control and 20 % of Control

Structure (SMILES): COn1c(C(F)(F)F)nc2ncc(Cl)cc21 [1-methoxy-6-chloro-2-trifluoromethyl-1H-imidazo(4,5-b)pyridine]
- Coagulation Factor, Prothrombin (II) (Prothrombin (II)): 39 % of Control
- Activated Partial Thromboplastin Time [1]: 18.9 s and 26.2 s
- Fibrinogen Levels [1]: 236 mg% and 222 mg%
- Prothrombin Time [1]: 12.2 s and 12.9 s
- Thrombin Clotting Time [1]: 10.5 s and 13.9 s
- Prolongation of activated partial thromboplastin time (in words) ([1]; dogs, 40 mg./kg. oral x 3 days): prolongs activated partial thromboplastin time
- Coagulation Factor, PTA (XI) (PTA (XI)): 224 % of Control and 200 % of Control
- Coagulation Factor, AHG (VIII) (AHG (VIII)): 124 % of Control and 122 % of Control
- Deaths (prothrombin time; 0.02 percent in diet): none
- Range of Prothrombin Time (prothrombin time; 0.02 percent in diet): 19.5 to 27.5 s
- Deaths (prothrombin time; 0.08 percent in diet): none
- Range of Prothrombin Time (prothrombin time; 0.08 percent in diet): 50.1 to 109.1 s
- Coagulation Factor, PTC (IX) (PTC (IX)): 26 % of Control and 35 % of Control
- Coagulation Factor, Stuart Factor (X) (Stuart Factor (X)): 4 % of Control and 6 % of Control
- Coagulation Factor, Hageman Factor (XII) (Hageman Factor (XII)): 25 % of Control and 43 % of Control
- Coagulation Factor, Ac Globulin (V) (Ac Globulin (V)): 100 % of Control
- Coagulation Factor, Proconvertin (VII) (Proconvertin (VII)): 9 % of Control and 14 % of Control
